# Test results: PMC6099102, “Effect of the Nature of Donor Atoms on the Thermodynamic, Kinetic and Relaxation Properties of Mn(II) Complexes Formed With Some Trisubstituted 12-Membered Macrocyclic Ligands” (Frontiers in Chemistry, 2018)
# Where two headings read alike, the source gives them in different places.
# Assays:
# [1] = Dissociation kinetics of the Mn(II) complexes (acid catalyzed dissociation, metal or ligand exchange reactions); assay type: physicochemical; conditions: I = 0.15 M NaCl, 25 °C; for t1/2 0.1 M HCl: half-life of dissociation calculated for 0.1 M H+; for t1/2 pH = 7.4 cM = 10^−5 M: half-life of dissociation calculated for pH 7.4, 10 μM exchanging metal ion
# Method: The dissociation reactions were followed by UV-vis spectrophotometry at 269 nm for the pyclen derivatives or at 300 nm for other complexes in the pH range of 3.6–5.0 for the exchange reactions with Cu(II) and up to pH = 6.0 when Zn(II) was used as a ligand scavenger. The acid catalyzed dissociation reactions were performed in the HCl concentration range of 0.05–1.0 M. The concentration of the complexes in the samples was 0.25 mM, while the concentration of the exchanging metal ion in the metal initiated transchelation reactions was 10–40 times higher to ensure pseudo-first-order conditions. Relaxometry was used to follow the transchelation reactions of [Mn(DOTAM)]^2+, [Mn(DO3AM^H)]^2+, [Mn(DO3A)]^−, [Mn(PCTA)]^− and [Mn(ODO3A)]^− with Cu(II)/Zn(II) ions in the pH range of 3.6–5.5 (Figures S17–S19 in Supplementary Material). The concentration of the complexes in these samples was set to 1.0–2.0 mM to achieve relatively large change during the dissociation reaction. […] The temperature was maintained at 25 °C and the ionic strength of the solutions was kept constant at 0.15 M with NaCl. N,N′-dimethyl- (DMP) and N-methyl-piperazine (NMP) buffers (log K2H = 4.18 and 4.90 at 25 °C and I = 0.15 M NaCl, respectively) were used at 0.05 M concentration to keep the pH constant. The pseudo-first-order rate constants (kobs) were calculated by fitting the absorbance or relaxivity-time data pairs to Equation (1) (1) Xt=(X0-Xe)e^-kobst+Xe where Xt, X0, and Xe are the absorbance or relaxivity at time t, at the start and at equilibrium, respectively. The calculations were performed with the computer program Micromath Scientist, version 2.0 (Salt Lake City, UT, USA) using a standard least-squares procedure.
# The kinetic inertness of the Mn(II) complexes is the other important parameter for the complexes considered for use in vivo. The inertness of Mn(II) complexes formed with trisubstituted 12-memberd macrocyclic ligands were characterized either by studying the rates of acid catalyzed dissociation or by studying transmetallation reactions occurring between the complexes and a suitable exchanging metal ion such as Zn(II) or Cu(II). The demetallation reactions of labile complexes were performed at high pH by following the ligand exchange reactions with trans-CDTA and DTPA ligands. The demetallation reactions were studied in the presence of a large Cu(II)/Zn(II)/trans-CDTA/DTPA excess or by using high acid concentration in order to ensure pseudo-first-order conditions (Equation 6). Scheme 1 outlines all the possible dissociation pathways for the Mn(II) complexes. […] The reactions of the released Mn(II) and L ligand with the exchanging L' and M' reactants are assumed to be very rapid.
# The rate of dissociation can be expressed by the Equation (6), where kobs is the pseudo-first-order rate constant and [Mn(L)]t is the total concentration of the species containing [Mn(L)] complex. The [Mn(L)]t will differ slightly depending on the experimental conditions (in the presence of a large metal or ligand excess). As [Mn(L)]t = [Mn(L)] + [Mn(HL)] + [Mn(H2L)] + [Mn(L)M] + [Mn(L)(L')] + [Mn(HL)(L')] for reactions performed at high pH (in the pH range of 3.0–5.0 often applied in Cu(II) exchange reactions) will involve fewer protonated species while the acid catalyzed dissociation reactions run in the strongly acidic media (0.1–1.0 M acid concentration range) predominantly contain protonated species ([Mn(L)]t = [Mn(L)]+[Mn(HL)]+[Mn(H2L)]). (6) -d[MnL]t/dt=kobs[MnL]t
# By taking into account the various complex species and the possible reaction pathways as well as the protonation and stability constants of the reactive intermediates, the following equation (Equation 7) can be derived to describe the rates of dissociation. […]
# [2] = Longitudinal water proton relaxivity (r1p) of the Mn(II) complexes; assay type: physicochemical
# Method: The relaxometric data were collected using a Bruker Minispec MQ20 NMR relaxometer. […] A datapoint plotted on figures represents an average of 5–6 T1 measurements (Figures S3–S9 in Supplementary Material). The data were fitted by using the molar r1p relaxivity value of the MnCl2 ([…] at 0.49 T and 25 °C). The equilibrium constants were calculated using the PSEQUAD program (Zékány and Nagypál, [1985]).
# The longitudinal water proton relaxation rates (r1 = 1/T1-1/Tw) were measured at 20 MHz with a Bruker Minispec MQ-20 relaxometer (Bruker Biospin, Germany). Samples were thermostated by using a circulating water bath at 25.0 ± 0.2 °C. The longitudinal relaxation times (T1) were measured by the inversion-recovery method (180° − τ − 90°), averaging 5–6 data points collected for each concentration point obtained from 14 different τ values (τ values ranging between 0 to at least 6 times the expected T1). The relaxivity of the complexes was determined by titrating a nearly 1.0 mM ligand solution with a Mn(II) stock solution at pH = 7.22–7.43 (50 mM HEPES buffer, I = 0.15 M NaCl, 25 °C). Under these conditions, the only Mn(II) ion containing species present in solution is the [Mn(L)], which was supported by the r1 vs. pH profiles. The relaxivity of the complex was determined as the slope of the strait line obtained by plotting 1/T1p values as a function of Mn(II) concentration for samples with [Ligand] > [Mn(II)]. The relaxivity of [Mn(DOTP)]^6− and [Mn(DO3P)]^4− was determined in the pH range of 10.0–11.0 and 8.5–9.3, respectively where mainly the [Mn(DO3P)]^4− and [Mn(DOTP)]^6− complex exists in solution (Figures S4 and S9 in Supplementary Material).
# The relaxivity (r1p, mM^−1s^−1) is defined as the longitudinal water proton relaxation rate in a solution containing 1.0 mM concentration of the paramagnetic species. It characterizes the efficiency of a paramagnetic metal chelate to enhance the solvent proton relaxation rate at a given magnetic field (usually 20 MHz) and temperature. The inner-sphere contribution to relaxivity is directly proportional to the number of metal bound water molecules (q), and therefore, relaxivity values may provide some useful information on the hydration state of paramagnetic complexes of similar molecular weights and electronic relaxation times. […] The r1p values of the Mn(II) complexes formed with heptadentate 12-membered macrocyclic ligands were determined at 0.5 T field strength and 25 °C and reported in Table 4 along with some relaxivity data published for the complexes of hexa-, hepta- and octadentate ligands. […] Below these pH ranges the phosphonate moieties undergo protonation, which further increases the relaxivity (2.60–2.90 mM^−1s^−1 values were observed near pH = 7.4, see Supplementary Material). Similar increase in the relaxivity (to 3.20 mM^−1s^−1 at 20 MHz, 37 °C) is observed for the [Mn(DOTA)]^2− complex upon its protonation and formation of the thermodynamically stable diprotonated [Mn(H2DOTA)] complex that exists as a non-hydrated chelate both in solution and in the solid state (Wang and Westmoreland, [2009]). The relaxivity of the diprotonated species at t → 0 time point was determined from the extrapolation of the relaxivity vs. time data collected after acidification of the samples containing the complexes. The X-ray crystallographic structure of [Mn(H2DOTA)] indicates the protonation of two trans carboxylate moieties (e.g., the coordination around the metal ion is similar to that observed in [Mn(trans-DO2A)] as determined by DFT calculations). Thus, the relaxivity of the diprotonated [Mn(H2DOTA)] and [Mn(H2DOTMA)] complexes is expected to be similar to that of [Mn(trans-DO2A)] (when q = 0). The value obtained by us is considerably higher, which highlights the importance of prototropic exchange as a useful tool to improve the relaxivity of the complexes (however, it has to be underlined that the protonation of the complex generally leads to a decrease in kinetic inertness).
# [3] = cited from earlier work
# [4] = 0.5 T field strength, 25 °C and pH = 7.4
# [5] = ligand exchange reaction with trans-CDTA^4− or DTPA^5− in the pH range 8-9.5
SMILES,t1/2 0.1 M HCl [1],"r1p [2, 4]",t1/2 pH = 7.4 cM = 10^−5 M [1],k1 (proton-assisted dissociation) [1],also measured
NC(=O)CN1CCN(CC(N)=O)Cc2cccc(n2)CN(CC(N)=O)CC1.[Mn+2] [[Mn(PC3AM^H)]^2+],10.8 min,1.21 mM⁻¹ s⁻¹,,(1.07 ± 0.01) × 10^−2 M^−1s^−1,
O=C([O-])CN1CCNCCN(CC(=O)[O-])CCN(CC(=O)[O-])CC1.[Mn+2] [[Mn(DO3A)]^−],,1.18 to 1.31 mM⁻¹ s⁻¹,1.1 × 10^4 h,0.45 ± 0.03 M⁻¹ s⁻¹,k2 (proton-assisted dissociation) [1]: (3.2 ± 0.3) × 10^2 M^−2s^−1; r1p ([3]; ref Rolla et al. ([2013])): 1.30 mM⁻¹ s⁻¹
O=P([O-])([O-])CN1CCNCCN(CP(=O)([O-])[O-])CCN(CP(=O)([O-])[O-])CC1.[Mn+2] [[Mn(DO3P)]^4−],,,3 × 10^−3 h,,"k1 (proton-assisted dissociation) [1, 5]: (2.4 ± 0.2) × 10^5 M^−1s^−1; k2 (proton-assisted dissociation) [1, 5]: (2.2 ± 0.3) × 10^14 M^−2s^−1; r1p ([2]; 0.5 T, 25 °C, determined in the pH range of 8.5–9.3): 2.23^[b] mM^−1s^−1; relaxivity ([2]; near pH = 7.4, protonated phosphonate moieties): 2.60 to 2.90 mM⁻¹ s⁻¹"
NC(=O)CN1CCNCCN(CC(N)=O)CCN(CC(N)=O)CC1.[Mn+2] [[Mn(DO3AM^H)]^2+],0.123 min,1.33 mM⁻¹ s⁻¹,5.2 × 10^3 h,0.94 ± 0.02 M⁻¹ s⁻¹,
O=C([O-])CNC(=O)CN1CCN(CC(=O)NCC(=O)[O-])Cc2cccc(n2)CN(CC(=O)NCC(=O)[O-])CC1.[Mn+2] [[Mn(PC3AM^Gly)]^−],5.83 min,1.44 mM⁻¹ s⁻¹,,,k1 (proton-assisted dissociation) ([1]; proton-assisted dissociation of the [Mn(H3L)] complex): (1.64 ± 0.02) × 10^−2[c] M^−1s^−1; k0 (spontaneous dissociation) ([1]; spontaneous dissociation of the [Mn(H3L)] complex): (3.4 ± 0.2) × 10^−4[c] s^−1

# The next lines start with results.
t1/2 0.1 M HCl [1],"r1p [2, 4]",t1/2 pH = 7.4 cM = 10^−5 M [1],SMILES,k1 (proton-assisted dissociation) [1],also measured
7.17 min,1.11 mM⁻¹ s⁻¹,,NC(=O)CN1CCN(CC(N)=O)CCN(CC(N)=O)CCN(CC(N)=O)CC1.[Mn+2] [[Mn(DOTAM)]^2+],(1.6 ± 0.03) × 10^−2 M^−1s^−1,"r1p ([3]; 0.5 T field strength (20 MHz) and 37 °C, ref Wang and Westmoreland ([2009])): 0.96 mM⁻¹ s⁻¹"
,1.40 mM⁻¹ s⁻¹,1.8 × 10^2 h,O=C([O-])CN1CCOCCN(CC(=O)[O-])CCN(CC(=O)[O-])CC1.[Mn+2] [[Mn(ODO3A)]^−],27 ± 2 M⁻¹ s⁻¹,k2 (proton-assisted dissociation) [1]: (1.5 ± 0.3) × 10^5 M^−2s^−1
